Where a name gives a salt, the structure may show the parent alone.
Key:
full-length human PHD1 = target: T1, full-length human PHD1 (Homo sapiens, UniProt Q96KS0); assay: TR-FRET assay, enzymatic IC50 against PHD1; type: biochemical; on IC50: 15 nM PHD1
T1 construct: FLAG (N); purchased Active Motif 81064; host or cells: baculovirus expression system
Description: PHD1 was expressed in a baculovirus expression system as the full-length protein (NCBI accession number NP_542770.2) with an N-terminal FLAG tag (molecular weight 44.9 kDa).

full-length human PHD2 = full-length human PHD2 (Homo sapiens, UniProt Q9GZT9); assay: TR-FRET assay, enzymatic IC50 against PHD2
Sequence of full-length human PHD2 (Q9GZT9 whole entry): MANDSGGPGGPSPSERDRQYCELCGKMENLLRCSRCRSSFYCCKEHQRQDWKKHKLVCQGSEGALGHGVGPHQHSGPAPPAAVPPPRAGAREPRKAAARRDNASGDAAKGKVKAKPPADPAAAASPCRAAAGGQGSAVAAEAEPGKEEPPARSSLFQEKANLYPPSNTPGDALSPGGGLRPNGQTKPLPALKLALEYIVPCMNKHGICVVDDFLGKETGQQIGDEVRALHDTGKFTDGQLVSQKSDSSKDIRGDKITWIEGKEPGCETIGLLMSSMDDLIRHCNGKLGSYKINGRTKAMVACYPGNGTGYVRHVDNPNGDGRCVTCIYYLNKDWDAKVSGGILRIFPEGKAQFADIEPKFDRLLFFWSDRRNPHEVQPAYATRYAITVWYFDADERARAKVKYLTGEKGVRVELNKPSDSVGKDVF

T1 sequence (Q96KS0 whole entry): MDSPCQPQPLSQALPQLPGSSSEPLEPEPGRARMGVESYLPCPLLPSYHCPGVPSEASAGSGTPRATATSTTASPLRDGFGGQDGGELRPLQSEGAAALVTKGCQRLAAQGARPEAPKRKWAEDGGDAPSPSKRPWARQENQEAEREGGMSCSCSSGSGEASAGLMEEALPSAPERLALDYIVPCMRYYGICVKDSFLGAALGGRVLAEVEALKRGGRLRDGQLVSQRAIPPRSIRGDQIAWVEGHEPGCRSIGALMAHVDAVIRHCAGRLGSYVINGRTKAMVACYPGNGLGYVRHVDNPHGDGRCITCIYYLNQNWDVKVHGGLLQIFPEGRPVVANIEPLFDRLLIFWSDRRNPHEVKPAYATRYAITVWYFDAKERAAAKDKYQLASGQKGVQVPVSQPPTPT

| IC50 (full-length human PHD1) [nM] | IC50 (full-length human PHD2) [nM] | SMILES | Km (full-length human PHD1; read-out: Km of 2-OG for PHD1) [µM] |
| --- | --- | --- | --- |
| < 100 | < 100 | Cc1nn(-c2ccc(P(C)(C)=O)cn2)c(O)c1-c1ccc(C#N)cc1 [Compound 14, 4-(1-(5-(dimethylphosphoryl)pyridin-2-yl)-5-hydroxy-3-methyl-1H-pyrazol-4-yl)benzonitrile] |  |
| < 100 | < 100 | Cc1nn(-c2ccc([S@@](C)(=N)=O)cn2)c(O)c1-c1ccc(C#N)cc1 [Compound 16, (S)-4-(5-hydroxy-3-methyl-1-(5-(S-methylsulfonimidoyl)pyridin-2-yl)-1H-pyrazol-4-yl)benzonitrile] |  |
| < 100 | < 100 | Cc1nn(-c2ccc([S@](C)(=N)=O)cn2)c(O)c1-c1ccc(C#N)cc1 [Compound 17, (R)-4-(5-hydroxy-3-methyl-1-(5-(S-methylsulfonimidoyl)pyridin-2-yl)-1H-pyrazol-4-yl)benzonitrile] |  |
| < 100 | < 100 | Cc1nn(-c2ccc([S@@+](C)[O-])cn2)c(O)c1-c1ccc(C#N)cc1 [Compound 23, (R)-4-(5-hydroxy-3-methyl-1-(5-(methylsulfinyl)pyridin-2-yl)-1H-pyrazol-4-yl)benzonitrile] |  |
| < 100 | < 100 | Cc1nn(-c2ccc(S(=N)(N)=O)cn2)c(O)c1-c1ccc(C#N)cc1 (centres unmarked) [Compound 24, 6-(4-(4-cyanophenyl)-5-hydroxy-3-methyl-TH-pyrazol-1-yl)pyridine-3-sulfonimidamide] |  |
| < 100 | < 100 | CNS(=N)(=O)c1ccc(-n2nc(C)c(-c3ccc(C#N)cc3)c2O)nc1 (centres unmarked) [Compound 26, 6-(4-(4-cyanophenyl)-5-hydroxy-3-methyl-1H-pyrazol-1-yl)-N-methylpyridine-3-sulfonimidamide] |  |
| < 100 | < 100 | CC(=O)NS(=O)(=O)c1ccc(-n2nc(C)c(-c3ccc(C#N)cc3)c2O)nc1 [Compound 29, N-((6-(4-(4-cyanophenyl)-5-hydroxy-3-methyl-1H-pyrazol-1-yl)pyridin-3-yl)sulfonyl)acetamide] |  |
| < 100 | 100 to 1000 | Cc1nn(-c2ccc(NC(=O)N3CCOCC3)cn2)c(O)c1-c1ccc(C#N)cc1 [Compound 31, N-(6-(4-(4-cyanophenyl)-5-hydroxy-3-methyl-1H-pyrazol-1-yl)pyridin-3-yl)morpholine-4-carboxamide] |  |
| 100 to 1000 | 100 to 1000 | Cc1nn(-c2ccc(NC(=O)N3CCNCC3)cn2)c(O)c1-c1ccc(C#N)cc1 [Compound 32, N-(6-(4-(4-cyanophenyl)-5-hydroxy-3-methyl-1H-pyrazol-1-yl)pyridin-3-yl)piperazine-1-carboxamide hydrochloride] |  |
| < 100 | < 100 | Cc1nn(-c2ccc(S(=N)(=O)C3CC3)cn2)c(O)c1-c1ccc(C#N)cc1 (centres unmarked) [Compound 33, 4-(1-(5-(cyclopropanesulfonimidoyl)pyridin-2-yl)-5-hydroxy-3-methyl-1H-pyrazol-4-yl)benzonitrile] |  |
| < 100 | < 100 | Cc1nn(-c2ccc(CC(=O)O)cn2)c(O)c1-c1ccc(C#N)cc1 [Compound 47, 2-(6-(4-(4-cyanophenyl)-5-hydroxy-3-methyl-1H-pyrazol-1-yl)pyridin-3-yl)acetic acid] |  |

Further lines, the compound ahead of its results:

| SMILES | IC50 (full-length human PHD1) [nM] | IC50 (full-length human PHD2) [nM] | Km (full-length human PHD1; read-out: Km of 2-OG for PHD1) [µM] |
| --- | --- | --- | --- |
| O=C(O)CCC(=O)C(=O)O [Compound 2-OG, 2-oxoglutarate, reference compound] |  |  | 0.0127 |
| Cc1nn(-c2ccc(S(C)(=N)=O)cn2)c(O)c1-c1ccc(Cl)cc1 (centres unmarked) [Compound 18, (6-(4-(4-chlorophenyl)-5-hydroxy-3-methyl-1H-pyrazol-1-yl)pyridin-3-yl)(imino)(methyl)-λ^6-sulfanone] | < 100 | < 100 |  |
| Cc1nn(-c2ccc(S(=N)(=O)C(C)C)cn2)c(O)c1-c1ccc(C#N)cc1 (centres unmarked) [Compound 19, 4-(5-hydroxy-3-methyl-1-(5-(propan-2-ylsulfonimidoyl)pyridin-2-yl)-1H-pyrazol-4-yl)benzonitrile] | < 100 | < 100 |  |
| Cc1nn(-c2ccc(S(=N)(=O)c3ccccc3)cn2)c(O)c1-c1ccc(C#N)cc1 (centres unmarked) [Compound 20, 4-(5-hydroxy-3-methyl-1-(5-(phenylsulfonimidoyl)pyridin-2-yl)-1H-pyrazol-4-yl)benzonitrile] | < 100 | < 100 |  |
| CCS(=N)(=O)c1ccc(-n2nc(C)c(-c3ccc(C#N)cc3)c2O)nc1 (centres unmarked) [Compound 21, 4-(5-hydroxy-3-methyl-1-(5-(S-ethylsulfonimidoyl)pyridin-2-yl)-1H-pyrazol-4-yl)benzonitrile] | < 100 | < 100 |  |
| Cc1nn(-c2ccc([S@+](C)[O-])cn2)c(O)c1-c1ccc(C#N)cc1 [Compound 22, (S)-4-(5-hydroxy-3-methyl-1-(5-(methylsulfinyl)pyridin-2-yl)-1H-pyrazol-4-yl)benzonitrile] | < 100 | < 100 |  |
| Cc1nn(-c2ccc(S(=N)(=O)N(C)C)cn2)c(O)c1-c1ccc(C#N)cc1 (centres unmarked) [Compound 25, 6-(4-(4-cyanophenyl)-5-hydroxy-3-methyl-1H-pyrazol-1-yl)-N,N-dimethylpyridine-3-sulfonimidamide] | < 100 | < 100 |  |
| Cc1nn(-c2ccc(C(=O)NS(C)(=O)=O)cn2)c(O)c1-c1ccc(Cl)cc1 [Compound 28, 6-(4-(4-chlorophenyl)-5-hydroxy-3-methyl-1H-pyrazol-1-yl)-N-(methylsulfonyl)nicotinamide] | < 100 | 100 to 1000 |  |
| CC(=O)NS(=O)(=O)c1ccc(-n2nc(C)c(-c3ccc(Cl)cc3)c2O)nc1 [Compound 30, N-((6-(4-(4-chlorophenyl)-5-hydroxy-3-methyl-1H-pyrazol-1-yl)pyridin-3-yl)sulfonyl)acetamide] | < 100 | < 100 |  |
| Cc1cc(-n2nc(C)c(-c3ccc(C#N)cc3)c2O)ncc1N1CCCC1=O [Compound 37, 4-(5-hydroxy-3-methyl-1-(4-methyl-5-(2-oxopyrrolidin-1-yl)pyridin-2-yl)-1H-pyrazol-4-yl)benzonitrile] | < 100 | < 100 |  |
| Cc1cc(-n2nc(C)c(-c3ccc(C#N)cc3)c2O)ncc1S(N)(=O)=O [Compound 38, 6-(4-(4-cyanophenyl)-5-hydroxy-3-methyl-1H-pyrazol-1-yl)-4-methylpyridine-3-sulfonamide] | < 100 | < 100 |  |
| Cc1cc(-n2nc(C)c(-c3ccc(C#N)cc3)c2O)ncc1NS(C)(=O)=O [Compound 39, N-(6-(4-(4-cyanophenyl)-5-hydroxy-3-methyl-1H-pyrazol-1-yl)-4-methylpyridin-3-yl)methanesulfonamide] | < 100 | < 100 |  |
| Cc1cc(-n2nc(C)c(-c3ccc(C#N)cc3)c2O)ncc1S(C)(=N)=O (centres unmarked) [Compound 40, 4-(5-hydroxy-3-methyl-1-(4-methyl-5-(S-methylsulfonimidoyl)pyridin-2-yl)-1H-pyrazol-4-yl)benzonitrile] | < 100 | < 100 |  |
| Cc1nn(-c2ccc([S@@](=N)(=O)C(C)C)cn2)c(O)c1-c1ccc(C#N)cc1 [Compound 41, (S)-4-(5-hydroxy-3-methyl-1-(5-(S-isopropylsulfonimidoyl)pyridin-2-yl)-1H-pyrazol-4-yl)benzonitrile] | < 100 | < 100 |  |
| Cc1nn(-c2ccc([S@](=N)(=O)C(C)C)cn2)c(O)c1-c1ccc(C#N)cc1 [Compound 42, (R)-4-(5-hydroxy-3-methyl-1-(5-(S-isopropylsulfonimidoyl)pyridin-2-yl)-1H-pyrazol-4-yl)benzonitrile] | < 100 | < 100 |  |
| Cc1nn(-c2ccc(C3CN(S(C)(=O)=O)C3)cn2)c(O)c1-c1ccc(C#N)cc1 [Compound 43, 4-(5-hydroxy-3-methyl-1-(5-(1-(methylsulfonyl)azetidin-3-yl)pyridin-2-yl)-1H-pyrazol-4-yl)benzonitrile] | < 100 | < 100 |  |
| Cc1nc(-n2nc(C)c(-c3ccc(C#N)cc3)c2O)ccc1S(C)(=O)=O [Compound 45, 4-(5-hydroxy-3-methyl-1-(6-methyl-5-(methylsulfonyl)pyridin-2-yl)-1H-pyrazol-4-yl)benzonitrile] | 1000 to 10000 | 1000 to 10000 |  |
| Cc1cc(-n2nc(C)c(-c3ccc(C#N)cc3)c2O)ncc1S(C)(=O)=O [Compound 46, 4-(5-hydroxy-3-methyl-1-(4-methyl-5-(methylsulfonyl)pyridin-2-yl)-1H-pyrazol-4-yl)benzonitrile] | < 100 | < 100 |  |
| Cc1cc(-c2c(C)nn(-c3ccc(S(C)(=O)=O)cn3)c2O)ccc1O [Compound 48, 4-(4-hydroxy-3-methylphenyl)-3-methyl-1-(5-(methylsulfonyl)pyridin-2-yl)-1H-pyrazol-5-ol] | 100 to 1000 | 100 to 1000 |  |
| COc1ccc(-c2c(C)nn(-c3ccc(S(C)(=O)=O)cn3)c2O)cc1C [Compound 49, 4-(4-methoxy-3-methylphenyl)-3-methyl-1-(5-(methylsulfonyl)pyridin-2-yl)-1H-pyrazol-5-ol] | 100 to 1000 | 100 to 1000 |  |
| Cc1nn(-c2ccc(-c3nn[nH]n3)cn2)c(O)c1-c1ccc(C#N)cc1 [Compound 50, 4-(1-(5-(2H-tetrazol-5-yl)pyridin-2-yl)-5-hydroxy-3-methyl-1H-pyrazol-4-yl)benzonitrile] | < 100 | < 100 |  |
| Cc1nn(-c2ccc(-c3cn(C)nn3)cn2)c(O)c1-c1ccc(C#N)cc1 [Compound 54, 4-(5-hydroxy-3-methyl-1-(5-(1-methyl-1H-1,2,3-triazol-4-yl)pyridin-2-yl)-1H-pyrazol-4-yl)benzonitrile] | < 100 |  |  |
| Cc1cc(-n2nc(C)c(-c3ccc(C#N)cc3)c2O)ncc1S(=O)(=O)N1CCCC1 [Compound 72, 4-(5-hydroxy-3-methyl-1-(4-methyl-5-(pyrrolidin-1-ylsulfonyl)pyridin-2-yl)-1H-pyrazol-4-yl)benzonitrile] | < 100 |  |  |

— patent US20230159489A1, “PHD INHIBITOR COMPOUNDS, COMPOSITIONS, AND USE” (Akebia Therapeutics, Inc., priority 2020, published 2023)
